Assay results published in US20070117743A1, “New antitumoral compounds” (priority 2003, published 2007).
Read-outs that look alike come from different tables or passages of the source.

What was measured:
Format in all cases: cell-based, human
IGROV-1 = experiment: SRB colorimetric assay of cell growth and viability, IGROV-1; settings: 48 hours exposure
LNCaP = experiment: SRB colorimetric assay of cell growth and viability, LNCaP; settings: 48 hours exposure; for GI50: read-out: GI50 LN-caP; for CC50: read-out: LC50 LN-caP
SK-BR-3 = experiment: SRB colorimetric assay of cell growth and viability, SK-BR-3; settings: 48 hours exposure
HeLa = experiment: SRB colorimetric assay of cell growth and viability, HeLa; settings: 48 hours exposure; for CC50: read-out: LC50 HELA
DU-145 = experiment: SRB colorimetric assay of cell growth and viability, DU-145; settings: 48 hours exposure
LoVo-Dox = experiment: SRB colorimetric assay of cell growth and viability, LoVo-Dox; settings: 48 hours exposure; for CC50: read-out: LC50 LOVO-DOX
Procedure, shortened: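 Optical density at 490 nm of solubilized SRB, from triplicate wells, yields GI, TGI and LC values. Before staining, cells are fixed for 60 minutes at 4° C in cold TCA after a 48-hour exposure.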

HeLa-APL = experiment: SRB colorimetric assay of cell growth and viability, HeLa-APL; settings: 48 hours exposure; for CC50: read-out: LC50 HELA-APL
HT-29 = experiment: SRB colorimetric assay of cell growth and viability, HT-29; settings: 48 hours exposure; for GI50: read-out: GI50 HT-29; for CC50: read-out: LC50 HT-29
K-562 = experiment: SRB colorimetric assay of cell growth and viability, K-562; settings: 48 hours exposure; for CC50: read-out: LC50 K-562
PANC-1 = experiment: SRB colorimetric assay of cell growth and viability, PANC-1; settings: 48 hours exposure; for CC50: read-out: LC50 PANC-1
A-549 = experiment: SRB colorimetric assay of cell growth and viability, A-549; settings: 48 hours exposure; for GI50: read-out: GI50 A-549; for CC50: read-out: LC50 A-549
SK-MEL-28 = experiment: SRB colorimetric assay of cell growth and viability, SK-MEL-28; settings: 48 hours exposure; for CC50: read-out: LC50 MEL-28
LoVo = experiment: SRB colorimetric assay of cell growth and viability, LoVo; settings: 48 hours exposure; for CC50: read-out: LC50 LOVO
IGROV-ET = experiment: SRB colorimetric assay of cell growth and viability, IGROV-ET; settings: 48 hours exposure; for CC50: read-out: LC50 IGROV-ET

## C/C=C1\NC(=O)[C@H](Cc2ccccc2)NC(=O)[C@@H](C(C)C)NC(=O)[C@@H]([C@@H](C)CC)NC(=O)[C@H](NC(=O)[C@H](NC(=O)[C@H](CCCN)NC(=O)[C@H]2CCCN2C(=O)[C@H](NC(=O)[C@@H](NC(=O)[C@@H](NC(=O)[C@@H](CC2CCCCC2)NC(=O)CCCC(C)C)[C@@H](C)O)C(C)C)C(C)C)[C@@H](C)CC)[C@@H](C)OC(=O)[C@H](C(C)C)NC1=O [Compound 8, [D-Cha^13]-KF]
IGROV-1
  GI50: 1040 nM
  LC50 (concentration causing 50% net cell killing): 4.29 µM
  TGI IGROV: 2.11E−06 Molar
LNCaP
  TGI LN-caP: 6.53E−06 Molar
  GI50: 2790 nM
  CC50: 6.53 µM
SK-BR-3
  GI50: 484 nM
  LC50: 3.17 µM
  TGI SK-BR-3: 1.25E−06 Molar
HeLa
  GI50: 1400 nM
  TGI HELA: 2.30E−06 Molar
  CC50: 3.8 µM
DU-145
  GI50: 1330 nM
  LC50 (concentration causing 50% net cell kill): 4.26 µM
  TGI DU-145: 2.38E−06 Molar
LoVo-Dox
  GI50: 986 nM
  TGI LOVO-DOX: 2.09E−06 Molar
  CC50: 4.43 µM
HeLa-APL
  GI50: 1700 nM
  TGI HELA-APL: 2.87E−06 Molar
  CC50: 4.86 µM
HT-29
  TGI HT-29: 1.99E−06 Molar
  GI50: 992 nM
  CC50: 3.99 µM
K-562
  GI50: 1930 nM
  TGI K-562: 4.92E−06 Molar
  CC50: 6.53 µM
PANC-1
  GI50: 6.53 µM
  TGI PANC-1: 6.53E−06 Molar
  CC50: 6.53 µM
A-549
  TGI A-549: 4.18E−06 Molar
  GI50: 1970 nM
  CC50: 6.53 µM
SK-MEL-28
  GI50: 1450 nM
  TGI MEL-28: 2.42E−06 Molar
  CC50: 4.02 µM
LoVo
  GI50: 1010 nM
  TGI LOVO: 1.96E−06 Molar
  CC50: 3.82 µM
IGROV-ET
  GI50: 652 nM
  TGI IGROV-ET: 1.44E−06 Molar
  CC50: 3.16 µM

## [D,L-Ser^2]-KF [Compound 64]
IGROV-1
  GI50: ≥ 6750 nM
  LC50 (concentration causing 50% net cell killing): ≥ 6.75 µM
  TGI IGROV: 6.75E−06 Molar
LNCaP
  TGI LN-caP: 3.99E−06 Molar
  GI50: 1800 nM
  CC50: ≥ 6.75 µM
SK-BR-3
  GI50: ≥ 6750 nM
  LC50: ≥ 6.75 µM
  TGI SK-BR-3: 6.75E−06 Molar
HeLa; SRB
  GI50: ≥ 6750 nM
  TGI HELA: 6.75E−06 Molar
  CC50: ≥ 6.75 µM
DU-145
  GI50: ≥ 6750 nM
  LC50 (concentration causing 50% net cell kill): ≥ 6.75 µM
  TGI DU-145: 6.75E−06 Molar
LoVo-Dox; SRB
  GI50: ≥ 6750 nM
  TGI LOVO-DOX: 6.75E−06 Molar
  CC50: ≥ 6.75 µM
HeLa-APL; SRB
  GI50: ≥ 6750 nM
  TGI HELA-APL: 6.75E−06 Molar
  CC50: ≥ 6.75 µM
HT-29; SRB
  TGI HT-29: 6.75E−06 Molar
  GI50: ≥ 6750 nM
  CC50: ≥ 6.75 µM
K-562; SRB
  GI50: ≥ 6750 nM
  TGI K-562: 6.75E−06 Molar
  CC50: ≥ 6.75 µM
PANC-1; SRB
  GI50: ≥ 6.75 µM
  TGI PANC-1: 6.75E−06 Molar
  CC50: ≥ 6.75 µM
A-549; SRB
  TGI A-549: 6.75E−06 Molar
  GI50: ≥ 6750 nM
  CC50: ≥ 6.75 µM
SK-MEL-28
  GI50: ≥ 6750 nM
  TGI MEL-28: 6.75E−06 Molar
  CC50: ≥ 6.75 µM
LoVo; SRB
  GI50: ≥ 6750 nM
  TGI LOVO: 6.75E−06 Molar
  CC50: ≥ 6.75 µM
IGROV-ET
  GI50: ≥ 6750 nM
  TGI IGROV-ET: 6.75E−06 Molar
  CC50: ≥ 6.75 µM
